For 29 compounds, TGI and GI50 results are on record in PubChem BioAssay (NCI).

Holding throughout (assay): inhibition of tumour cell growth, NCI panel, 48 h
Experiment [1] has as its system 786-0 renal.
The subject of experiment [2] is A498 renal.
In experiment [3] the test system is A549 NSCLC.
Experiment [4] relates to HCC-2998 colon.
Experiment [5] concerns LOX IMVI melanoma.
Experiment [6] has as its system MOLT-4 leukemia.
For experiment [7], the system named is NCI-H23 lung.
The test system of experiment [8] is SF-268 CNS.
For experiment [9], the system named is SK-MEL-28 melanoma.

Molecules are shown by their SMILES.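 How tested: cells in 96-well plates exposed to compound for 48 hours at five concentrations. The concentration for 50% growth inhibition is given as GI50. TGI: concentration producing complete growth inhibition.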

With `COC(=O)C1C(C(=O)OC)C2C(=O)C3C(C(=O)OC)C(C(=O)OC)C3C(=O)C12` (configuration not stated), the TGI in [1], in experiment [2], in experiment [3], in experiment [4], in experiment [5] and in experiment [6] was above 100 µM in each case. Moreover, the TGI in [7], in experiment [8] and in experiment [9] was above 100 µM each time.
With `CC1=N/C(=C\c2ccc(/C=C3/N=C(C)OC3=O)cc2)C(=O)O1`, the TGI in experiment [1], in experiment [2], in [3], in [4], in [5] and in experiment [7] was above 100 µM in each case. Further, the TGI in [8] and in [9] was above 100 µM in each case.
As for `COc1cc(Nc2cnc3ccc(C(F)(F)F)cc3n2)cc(OC)c1OC`, the TGI in experiment [1] is above 100 µM; in experiment [3], above 100 µM; in [4], above 100 µM; in experiment [5], 23.2 µM; in [6], above 100 µM; in experiment [7], above 100 µM. Also, the TGI in experiment [8] and in experiment [9] was above 100 µM throughout.
`COC(=O)/C=C(/C(=O)OC)C1(C)c2cc(C(=O)OC)c(C(=O)OC)c(N)c2C(=N)N1c1ccccc1` (configuration not stated): the TGI in [1] is 74.4 µM; in [2], 88.9 µM; in experiment [3], above 100 µM; in experiment [4], 51.6 µM; in [5], 35 µM; in experiment [6], 46.2 µM. Further, the TGI in experiment [7] came out at 45.6 µM; in experiment [8], 41 µM; in experiment [9], 36.5 µM.
Take `CCN(CC)Cc1cc(Nc2nc(NC3CCC(N(C)C)CC3)c3ccccc3n2)ccc1OC` (configuration not stated): the GI50 in experiment [1] is 6.67 µM; in experiment [2] it was 12.5 µM; in experiment [3], 3.59 µM; in [4] it was 10.4 µM; in [6] it was 2.34 µM; in experiment [7] it was 6.9 µM. Also, the GI50 in experiment [8] was 5.35 µM; in experiment [9], 2.41 µM. The TGI in experiment [1] worked out at 19.3 µM; in experiment [2] it was 25.2 µM; in experiment [3], 13.7 µM; in [4], 22.2 µM; in experiment [6], 6.9 µM; in experiment [7] it was 21.9 µM. The TGI stood at 20.4 µM in experiment [8] and 5.17 µM in experiment [9].
Regarding `Cc1ccc(S(=O)(=O)OCC/C(=C\[Si](C)(C)C)c2ccccc2)cc1`, the TGI in experiment [1], in experiment [2], in [3], in [4], in experiment [5] and in experiment [6] was above 100 µM in each case. The TGI in experiment [7], in experiment [8] and in experiment [9] was above 100 µM each time.
In the case of `O=C1NC(=O)c2c1n(Cc1ccccc1)c(=O)n2Cc1ccccc1`, the TGI in experiment [1] is above 100 µM; in experiment [2], 77.9 µM; in experiment [3], above 100 µM; in experiment [4] it was above 100 µM; in experiment [5], above 100 µM; in experiment [6], above 100 µM. Also, the TGI in experiment [7], in [8] and in experiment [9] was above 100 µM in each case.
For the compound `CCOC(=O)c1nc(C)oc1C(F)(F)F`, the TGI in [1], in experiment [2], in experiment [3], in experiment [4], in experiment [5] and in experiment [6] was above 100 µM in each case. Moreover, the TGI in experiment [7], in experiment [8] and in experiment [9] was above 100 µM throughout.
As to `COc1nc2c(c(O)c(C)c(=O)n2OC2OCC(OC(C)=O)C(OC(C)=O)C2OC(C)=O)c(=O)n1C` (configuration not stated), the TGI in experiment [1], in experiment [3], in experiment [4], in experiment [5], in experiment [6] and in [7] was above 100 µM each time. Besides, the TGI in experiment [8] and in experiment [9] was above 100 µM in each case.
As to `O=C1[C@@H]2C(c3c(Cl)cccc3Cl)=NO[C@@H]2C(=O)N1c1ccc(Cc2ccc(N3C(=O)[C@H]4C(c5c(Cl)cccc5Cl)=NO[C@H]4C3=O)cc2)cc1`, the TGI in experiment [1], in [2], in experiment [3], in experiment [4], in [5] and in experiment [6] was above 100 µM throughout. In addition, the TGI in [7], in experiment [8] and in experiment [9] was above 100 µM in each case.
Turning to `N#CC(C(=O)C(=O)Nc1c(Cl)cccc1Cl)c1ccccc1` (configuration not stated), the GI50 in [1], in [2], in experiment [3], in [4], in experiment [5] and in [6] was above 100 µM in each case. In addition, the GI50 in experiment [7], in experiment [8] and in experiment [9] was above 100 µM each time. In addition, the TGI in experiment [1], in [2], in experiment [3], in [4], in experiment [6] and in experiment [7] was above 100 µM throughout. The TGI in [8] and in experiment [9] was above 100 µM each time.
`N#C/C(=C\c1cc(OCc2ccccc2)c(OCc2ccccc2)cn1)C(N)=O`: the TGI in [1] is above 100 µM; in experiment [2], above 100 µM; in [3] it was above 100 µM; in experiment [4], above 100 µM; in experiment [5], above 100 µM; in [6], 52.4 µM. Besides, the TGI in [7], in experiment [8] and in [9] was above 100 µM throughout.
As for `NNC(=O)C(=O)N/N=C1/CCCC1C(=O)CCC(=O)Nc1ccc(Cl)cc1` (configuration not stated), the TGI in experiment [1], in experiment [2], in experiment [3], in experiment [4], in experiment [6] and in [7] was above 100 µM in each case. Besides, the TGI in experiment [8] and in experiment [9] was above 100 µM each time.
On to `Nc1ncc(Cc2ccc3c(c2)OCO3)c(N)n1`, for which the TGI in experiment [1], in experiment [2], in [3], in experiment [4], in experiment [5] and in [6] was above 100 µM each time. Also, the TGI in experiment [7], in experiment [8] and in experiment [9] was above 100 µM each time.
Turning to `Cc1ccc2c(c1)CN1c3ccc(C)cc3CN2C1c1ccccc1O`, the TGI in experiment [1], in [3], in [5], in experiment [6], in experiment [7] and in [8] was above 100 µM each time. Also, in experiment [9], the TGI is above 100 µM.
As for `O=c1/c(=C/c2ccccc2[N+](=O)[O-])sc2nnc(-c3cccnc3)n12`, the TGI in [1], in [2], in experiment [3], in [4], in experiment [5] and in experiment [6] was above 100 µM in each case. For the same compound, the TGI in experiment [7], in [8] and in experiment [9] was above 100 µM in each case.
As for `COc1cc([C@@H]2c3cc4c(cc3[C@@H](NC(=O)c3ccc(C#N)cc3)C3COC(=O)[C@@H]32)OCO4)cc(OC)c1O` (some centres not stated), the TGI was determined as 16 µM in experiment [1]; 3.79 µM in experiment [2]; 1.64 µM in experiment [3]; 4.18 µM in experiment [4]; 2.34 µM in experiment [5]; 12.4 µM in experiment [6]. The TGI in experiment [7] was found to be 0.837 µM; in experiment [8], 16.9 µM; in experiment [9] it was 16.8 µM.
`O=[N+]([O-])c1ccc(Cl)c2c([N+](=O)[O-])cccc12`: the TGI in experiment [1], in experiment [3], in [4], in experiment [5], in [6] and in experiment [7] was above 10 µM each time. Moreover, the TGI in [8] and in experiment [9] was above 10 µM each time.
For the compound `COc1cc2oc(-c3ccc(O)cc3)cc(=O)c2c(O)c1C1OC(CO)C(O)C(O)C1O` (configuration not stated), the TGI in [1], in [2], in [3], in experiment [4], in experiment [5] and in experiment [6] was above 100 µM in each case. Besides, the TGI in experiment [7], in [8] and in [9] was above 100 µM each time.
Regarding `O=C1NC2=C(CCCCC/C2=N\O)C12CCCCCC2`, the TGI in [1], in experiment [2], in [3], in [5], in experiment [6] and in experiment [7] was above 100 µM each time. The TGI in experiment [8] and in experiment [9] was above 100 µM each time.
Turning to `Cc1nc(N)nc(CCC(=O)Nc2cccc(C(F)(F)F)c2)c1-c1ccc(Cl)cc1`, the TGI in experiment [1], in experiment [2], in experiment [3], in experiment [4], in [6] and in experiment [7] was above 100 µM throughout. The TGI in experiment [8] and in [9] was above 100 µM throughout.
With `CCc1cccc(C)c1NC(=O)CCc1nc(=S)[nH][nH]1`, the TGI in experiment [1], in experiment [3], in experiment [4], in experiment [5], in experiment [6] and in experiment [7] was above 100 µM in each case. Also, the TGI in [8] and in experiment [9] was above 100 µM throughout.
Regarding `Nc1ncnc2c1N=C(c1ccc3c(c1)OCO3)CC(c1ccc(Cl)cc1)N2` (configuration not stated), the GI50 was 21.7 µM in [1]; 5.93 µM in [2]; 11.6 µM in [3]; 5.88 µM in [4]; 10.1 µM in experiment [5]; 5.85 µM in [6]. Also, the figures for the GI50 in experiment [7], in [8] and in experiment [9] were 21.4 µM, 8.52 µM and 30.4 µM, respectively. The TGI is above 100 µM in experiment [1]; above 100 µM in [2]; 30.1 µM in experiment [3]; 35 µM in experiment [4]; 33 µM in experiment [5]; above 100 µM in [6]. Moreover, the figures for the TGI in experiment [7], in experiment [8] and in experiment [9] were above 100 µM, 45.9 µM and above 100 µM, respectively.
`O=C(NC1C(=O)NNC1c1cccc([N+](=O)[O-])c1)c1ccccc1` (configuration not stated): the TGI in experiment [1], in experiment [3], in experiment [4], in experiment [5], in experiment [6] and in experiment [7] was above 100 µM each time. Further, the TGI in experiment [8] and in [9] was above 100 µM in each case.
For `OCc1cc2c(cn1)[nH]c1ccc(NCc3ccccc3)cc12`, the TGI is 58.4 µM in [1]; 71.7 µM in experiment [2]; above 100 µM in experiment [3]; 58.9 µM in experiment [4]; above 100 µM in experiment [5]; 55.8 µM in experiment [6]. In addition, the TGI in experiment [7] is above 100 µM; in experiment [8], 70.9 µM; in [9], 38.4 µM.
Consider `O=[N+]([O-])c1ccccc1C1SCc2nc3ccccc3n21` (configuration not stated), for which the TGI in [1], in [2], in experiment [3], in experiment [5], in [6] and in experiment [7] was above 100 µM throughout. Further, the TGI in [8] and in experiment [9] was above 100 µM throughout.
For the compound `O=c1cc(O)cc2n1CCC2`, the TGI in experiment [1], in experiment [2], in experiment [3], in experiment [4], in [5] and in experiment [6] was above 100 µM in each case. In addition, the TGI in [8] is above 100 µM.
Take `O=C(Nc1ccc(N=C=S)cc1Cl)c1cc(Br)cc(Br)c1O`: the TGI was 75.2 µM in experiment [1]; 69.7 µM in experiment [3]; 69.4 µM in [6]; 55.2 µM in experiment [7]; above 100 µM in experiment [8]; above 100 µM in [9].
On to `COC(=O)CCC(NC(=S)N/N=C/c1cccs1)C(=O)OC` (configuration not stated), for which the TGI in [1], in experiment [2], in experiment [3], in experiment [4], in experiment [5] and in experiment [7] was above 100 µM in each case. The TGI in experiment [8] and in experiment [9] was above 100 µM in each case.
